Key:
[1] = tested on: rabbit anti-ABT4 antiserum; experiment: Indirect ELISA, reactivity and specificity of anti-ABT4 antiserum; format: binding; settings: FIG. 6, relative affinity ABT4 >PSA >hK2a
Experimental: (§1) An indirect ELISA assay was used to determine the reactivity and specificity of anti-PSA mAbs and pAbs. For the assay, 96 well microtiter plates (Costar, Cambridge, MA) were coated with PSA (0.5 micrograms/well, Abbott Laboratories, in house product, code# 91969, purified from seminal fluid) or peptides (0.1 mg/well) in 0.1 M carbonate-bicarbonate buffer (pH 9.0) overnight at 4° C. The plates were blocked with 1% BSA in PBS buffer (0.008 M sodium phosphate, 0.002M potassium phosphate, 0.14 M sodium chloride and 0.01M potassium chloride, pH 7.4) for 1 hour, then anti-PSA mAbs or pAbs (100 microliters/well) at varying dilutions were added. […] After washing, 100 microliters/well of p-nitrophenyl phosphate substrate (Pierce, Rockford, Ill.) was added and the absorbance was measured at 405 nm using an automated microtiter plate reader (Molecular Devices Corp. Menlo Oaks, Calif.). […]
The reactivity and specificity of Anti-ABT4 antiserum were evaluated by estimating the relative binding affinities (Wang et al., […] 39:1-5 (1982)) for PSA, PSA peptide ABT4 and hK2 peptide (hK2a) as described in Example I. The indirect ELISA assay format described in Section C-I of Example I was used for these studies and the data are shown in FIG. 6. […]

mAb H164 [2] = experiment: Competitive immunoassay: inhibition of total PSA specific mAb binding to PSA; settings: FIG. 3A
Experimental: (§2) (A). Two-site combinations of capture antibody and Europium chelate (Eu)-labeled antibody was used to determine the inhibition of mAbs binding to PSA by the synthetic peptides derived from PSA. Briefly, free PSA (0.05 pmol/well, Wallac, O Y, Turku, Finland) in 0.100 mL of Delfia® buffer (Wallac, O Y) (i.e., a blocking buffer containing 50 mM Tris-HCl (pH 7.75), 0.9% NaCl, 0.05% Na-azide, 0.01% Tween 40, 0.05% bovine-gammaglobulin, 20 μM DTPA, 0.5% BSA, 10 μg/mL native mouse IgG, 5 μg/mL denatured mouse IgG and 20 μg/mL cherry red) was added to microtiter wells coated with the various anti-PSA antibodies being used for capture (1-2 μg/well of antibody) and incubated for 1 hour at 25° C. […] After another four washings, the amount of bound Eu-labeled antibody was determined with time-resolved fluorometry previously described (Pettersson et al., Clin. Chem. 41:1480-88 (1995) & Hemmilia et al., Anal. Biochem. 137:335-43 (1984)).
(§3) (B). […] After another four washings, 100 μl/well of p-nitrophenyl phosphate substrate (Pierce Chemical Co., Rockford, Ill.) was added and the absorbance was measured at 405 nm using an automated microtiter plate reader.

mAb 2C1 = experiment: as above; settings: FIG. 3A
Experimental: as §2, §3

[3] = tested on: known anti-PSA monoclonal antibodies; experiment: Binding to known anti-PSA monoclonal antibodies (summary); settings: summary statement
Experimental: (§4) An indirect ELISA assay was used to determine the reactivity and specificity of anti-PSA mAbs and pAbs. For the assay, 96 well microtiter plates (Costar, Cambridge, MA) were coated with PSA (0.5 micrograms/well, Abbott Laboratories, in house product, code# 91969, purified from seminal fluid) or peptides (0.1 mg/well) in 0.1 M carbonate-bicarbonate buffer (pH 9.0) overnight at 4° C. The plates were blocked with 1% BSA in PBS buffer (0.008 M sodium phosphate, 0.002M potassium phosphate, 0.14 M sodium chloride and 0.01M potassium chloride, pH 7.4) for 1 hour, then anti-PSA mAbs or pAbs (100 microliters/well) at varying dilutions were added. After incubation for 1 hour at 25° C., the wells were washed with PBS buffer containing 0.5% Tween 20, then 100 microliters/well of alkaline phosphatase-conjugated antibody (goat anti-mouse IgG or goat anti-rabbit IgG--from Pierce, Rockford, IL) at 5000 fold dilution was added and incubation continued for 1-2 hr at 25° C. After washing, 100 microliters/well of p-nitrophenyl phosphate substrate (Pierce, Rockford, Ill.) was added and the absorbance was measured at 405 nm using an automated microtiter plate reader (Molecular Devices Corp. Menlo Oaks, Calif.).
(§5) (A). Two-site combinations of capture antibody and Europium chelate (Eu)-labeled antibody was used to determine the inhibition of mAbs binding to PSA by the synthetic peptides derived from PSA. Briefly, free PSA (0.05 pmol/well, Wallac, O Y, Turku, Finland) in 0.100 mL of Delfia® buffer (Wallac, O Y) (i.e., a blocking buffer containing 50 mM Tris-HCl (pH 7.75), 0.9% NaCl, 0.05% Na-azide, 0.01% Tween 40, 0.05% bovine-gammaglobulin, 20 μM DTPA, 0.5% BSA, 10 μg/mL native mouse IgG, 5 μg/mL denatured mouse IgG and 20 μg/mL cherry red) was added to microtiter wells coated with the various anti-PSA antibodies being used for capture (1-2 μg/well of antibody) and incubated for 1 hour at 25° C. (Free or total antibodies may be used.) After washing with Delfia® wash solution, peptides (62,500-1,000,000 molar excess to PSA) in […] Delfia® buffer were added together with the Europium chelate-labeled anti-PSA antibody (0.05 pmol), and incubation was continued for 1 hour at 25°0 C. After another four washings, the amount of bound Eu-labeled antibody was determined with time-resolved fluorometry previously described (Pettersson et al., Clin. Chem. 41:1480-88 (1995) & Hemmilia et al., Anal. Biochem. 137:335-43 (1984)).
as §3

mAb H164 [4] = experiment: Indirect ELISA, binding specificity of mAb H164; settings: FIG. 3C
Experimental: as §4

[5] = Immunization of rabbits with peptide coupled to KLH; format: in vivo; settings: FIG. 5 / FIG. 6
Source text: Antiserum was elicited by immunizing rabbits with PSA peptide ABT6 coupled to the carrier protein KLH (keyhole limpet hemocyanin) at Bio-Synthesis, Inc. (Lewisville, Tex.) using standard commercially available techniques.
Anti-ABT4 antiserum was elicited by immunizing two rabbits with PSA peptide ABT4 coupled to the carrier protein KLH at Bio-Synthesis, Inc.(Lewisville,Tex.).

[6] = tested on: rabbit anti-ABT6 antiserum; experiment: Indirect ELISA, reactivity and specificity of anti-ABT6 antiserum; format: binding; settings: FIG. 5
Experimental: as §1
The reactivity and specificity of antiserum anti-ABT6 was evaluated by estimating the relative binding affinities (Wang et al., Urology 39:1-5 (1982)) for PSA, PSA peptide ABT6 and hK2 peptide hK2b as described in Example I. The indirect ELISA format described in Section C-I of Example 1 was used for these studies and the data are shown in FIG. 5.

mAb 2E9 [7] = experiment: Competitive immunoassay: inhibition of mAb binding to PSA by synthetic peptides; settings: competitive immunoassay section C-II-A; FIG. 2A
Experimental: as §5

[8] = tested on: mAb 9B10 (specific for free PSA); experiment: as above
Experimental: as §5

mAb H68 = experiment: as above; settings: competitive immunoassay section C-II-A; FIG. 2A
Experimental: as §5

[9] = tested on: mAb 5A10 (specific for free PSA); experiment: as above; settings: competitive immunoassay section C-II-A; FIG. 2A
Experimental: as §5

mAb 2E9 [10] = experiment: Indirect ELISA, binding specificity of mAb 2E9; settings: FIG. 2B
Experimental: as §4

mAb 30:5 = experiment: Competitive immunoassay: inhibition of mAb binding to PSA by synthetic peptides; settings: inhibition studies
Experimental: as §5

mAb 6:3 = experiment: as above; settings: inhibition studies
Experimental: as §5

goat anti-PSA antiserum = experiment: Direct ELISA with alkaline phosphatase-labeled goat anti-PSA antiserum; format: binding; settings: peptides coated on microtiter plates; FIG. 4
Source text: Synthetic peptides were also screened by a direct ELISA assay format which utilized a goat anti-PSA antiserum conjugated to alkaline phosphatase. In particular, peptides were coated on microtiter plates and detected by enzyme-labelled anti-PSA polyclonal antibodies. The goat anti-PSA antiserum was produced by immunization with free PSA. […] In addition to those epitopes identified by mAbs as described above, two new epitopes, ABT2 and ABT7, were identified by the anti-PSA antiserum.

For CLLGRHSLFHPEDTGQC [ABT4], the “binding of anti-ABT4 antiserum (relative binding affinity)” value [1] was “binds”, the “inhibition of PSA binding to mAb H164” value (mAb H164 [2]) was 90% and the “inhibition of PSA binding to mAb 2C1” value (mAb 2C1) was 80%. The “binding to several known anti-PSA monoclonal antibodies” value [3] was “specific binding”, the “binding of mAb H164 to coated peptide or PSA” value (mAb H164 [4]) was “bound specifically” and the “immunogenicity (ability to elicit antibodies)” value [5] was “immunogenic”.

With CMSLLKNRFLRPGDDSC [ABT6] the “binding to several known anti-PSA monoclonal antibodies” value [3] was “specific binding”, the “binding of anti-ABT6 antiserum (relative binding affinity)” value [6] was “high affinity” and the “binding to mAb 2E9” value (mAb 2E9 [7]) was “selectively bound”. The “binding to mAb 9B10” value ([8]; competitive immunoassay section C-II-A, FIG. 2A) was “specific binding”, the “binding to mAb H68” value (mAb H68) was “selectively bound” and the “binding to mAb 5A10” value [9] was “specific binding”. The “binding of mAb 2E9 to coated peptide or PSA” value (mAb 2E9 [10]) was “specific binding” and the “immunogenicity (ability to elicit antibodies)” value [5] was “immunogenic”.

For “CNRFLRPGDDSSC [ABT1, synthetic PSA peptide; short version of ABT6]”, the “binding to several known anti-PSA monoclonal antibodies” value [3] was “specific binding”, the “inhibition of mAb 30:5” value (mAb 30:5) was 50% and the “inhibition of mAb 9B10” value ([8]; inhibition studies) was 40%. The “inhibition of mAb 6:3” value (mAb 6:3) was 23%.

In the case of “CWGSIEPEEFLTPKKLC [ABT2, synthetic PSA peptide]”, the “binding to several known anti-PSA monoclonal antibodies” value [3] is reported as “specific binding” and the “epitope identified by goat anti-PSA antiserum” value (goat anti-PSA antiserum) is reported as “identified”.

In the case of “PSA: Prostate specific antigen, Abbott Laboratories in house product, purified from seminal fluid”, the “binding of anti-ABT4 antiserum (relative binding affinity)” value [1] is reported as “binds”, the “binding of anti-ABT6 antiserum (relative binding affinity)” value [6] is reported as “high affinity” and the “binding of mAb H164 to coated peptide or PSA” value (mAb H164 [4]) is reported as “bound specifically”. For the same substance, the “binding of mAb 2E9 to coated peptide or PSA” value (mAb 2E9 [10]) was “specific binding”.

— patent US6143509A, “Prostate specific antigen peptides and uses thereof” (Abbott Laboratories, priority 1996, dated 2000)
